Experiments:
[1] = tested on: hexokinase; conditions: cited from earlier work
[2] = tested on: isolated rat hepatocytes; conditions: cited from earlier work
[3] = tested on: glucose metabolism; conditions: rodents, long-term, lower dose; cited from earlier work
[4] = tested on: utilization of glucose as an energy source; conditions: cited from earlier work
[5] = injected into a rat; cited from earlier work
[6] = Mice fed a composition containing mannoheptulose; type: in vivo
[7] = Pharmacokinetics, once daily mannoheptulose in composition fed to adult Labrador Retrievers; type: in vivo, Labrador Retriever dogs
Experimental: The pharmacokinetics of mannoheptulose can be determined in six adult, male Labrador Retriever dogs fed a nutritionally-balanced composition providing mannoheptulose at levels of 0, 1 or 2 mg/kg of body weight of the dog. Mannoheptulose is provided as an enriched source of avocado extract in the 1 and 2 mg/kg diets. The mean age of the dogs is 4.2 years and the age ranges from 3.3 to 6.1 years. The average body weight of all dogs is 33 kg and the body weight ranges from 28 to 36 kg. Dogs are adapted for 14 days to a nutritionally-balanced control composition (Eukanuba Senior Maintenance Formula) containing no mannoheptulose, avocado extract or avocado meal (0 mg/kg mannoheptulose). The two compositions containing mannoheptulose are the nutritionally-balanced control composition formulated with avocado extract to provide a mannoheptulose dose of 1 or 2 mg/kg of body weight when fed to a dog. […] Pharmacokinetics of mannoheptulose following once daily administration of mannoheptulose in a nutritionally-balanced composition is determined by collecting serial blood samples (3 mL) from each dog on day 9 using a Vacutainer blood collection system and jugular venipuncture. […] Plasma mannoheptulose concentrations are measured using high-performance liquid chromatography tandem mass spectrometry as described herein below.
A one-compartment model is used to calculate mannoheptulose pharmacokinetics based on plasma mannoheptulose levels following once daily oral administration of mannoheptulose in a nutritionally-balanced composition (PV(t)). […] Area under each plasma mannoheptulose curve is determined using a one-way, repeated measures analysis of variance (GraphPad Prism version 4.00 for Windows).
High performance liquid chromatography tandem mass spectrometry (HPLC/MS/MS) is utilized to determine the amount of mannoheptulose present in the plasma of adult dogs. […] Detection and quantitation is by mass spectrometry (MS) operating under multiple reaction monitoring MS/MS conditions. Concentrations of D-mannoheptulose in dog plasma can be quantitated from approximately 20 to 5000 ng/mL. […]

[8] = Pharmacokinetics, twice daily mannoheptulose in composition fed to older Labrador Retrievers; type: in vivo, Labrador Retriever dogs
Experimental: The pharmacokinetics of mannoheptulose can be determined in ten adult, female Labrador Retriever dogs fed a nutritionally-balanced composition providing mannoheptulose at levels of 0 or 2 mg/kg of body weight of the dog. Mannoheptulose is provided as avocado extract in the 2 mg/kg diet. The mean age of the dogs is 7.1 years and the age ranges from 5.3 to 8.4 years. Dogs are age-matched across the two composition groups. The average body weight of all dogs is 29 kg and ranges from 25 to 35 kg. The 0 mg/kg composition is fed as a nutritionally-balanced control composition (Eukanuba Senior Maintenance Formula) and it contains no mannoheptulose, avocado extract or avocado meal. The 2 mg/kg composition is the nutritionally-balanced control composition formulated to contain avocado extract to provide mannoheptulose at a dose of 2 mg/kg of body weight of the dog. The amount of composition offered to the dogs is based on feeding guidelines for the control composition and the target weight range and body condition of the dogs. Dogs are fed one-half their daily allotment of composition at 0730 and the remaining half at 1330. Dogs 1, 2, 3, 4 and 5 are fed the composition containing 2 mg/kg mannoheptulose and dogs 6, 7, 8, 9 and 10 are fed the composition containing 0 mg/kg mannoheptulose. Pharmacokinetics of mannoheptulose following twice daily administration of mannoheptulose in a nutritionally-balanced composition is determined by collecting serial blood samples (3 mL) from each dog using a Vacutainer blood collection system and jugular venipuncture. […] Plasma mannoheptulose concentrations are measured using high-performance liquid chromatography tandem mass spectrometry as described herein below.
A one-compartment model is used to calculate mannoheptulose pharmacokinetics based on plasma mannoheptulose levels following twice daily oral administration of mannoheptulose in a nutritionally-balanced composition (PV(t)). The model is: PV(t)=dose/(a·BW)e^−kt where: a=mannoheptulose pool size (dose/(enrichment at t0)), BW=body weight, k=rate constant of elimination (ln Et−ln E0)/−t, and t=time.
High performance liquid chromatography tandem mass spectrometry (HPLC/MS/MS) is utilized to determine the amount of mannoheptulose present in the plasma of adult dogs. […] Detection and quantitation is by mass spectrometry (MS) operating under multiple reaction monitoring MS/MS conditions. Concentrations of D-mannoheptulose in dog plasma can be quantitated from approximately 20 to 5000 ng/mL. […] Specimen concentrations are determined by back-calculation using a weighted (1/x^2) linear regression of a calibration curve generated from prepared D-mannoheptulose calibration standards. […]

[9] = doses of 10 grams, humans, orally; cited from earlier work
[10] = injected, rats, cited from earlier work

O=P(O)(O)OC[C@H]1OC[C@H](O)[C@@H](O)[C@@H]1O [1,5-anhydro-D-glucitol-6-phosphate]
inhibition of hexokinase [1]: allosteric (non-competitive) inhibitor

OC[C@H]1O[C@H](CO)[C@@H](O)[C@@H]1O [2,5-Anhydro-D-mannitol, 2,5-anhydro-D-mannitol]
effect on glucose formation and utilization [2]: interfere in glucose formation and utilization

O=CC[C@@H](O)[C@H](O)[C@H](O)CO [2-deoxy-D-glucose]
metabolic hallmarks of caloric restriction [3]: reduced body temperature, weight loss, and lower fasting insulin levels

CO[C@@H]([C@H](O)[C@H](O)CO)[C@@H](O)C=O [3-O-methylglucose]
responses relative to 2-deoxyglucose ([4]; administration in rats): about seven times weaker
metabolism ([4]; in contrast with 2-deoxy-D-glucose): not metabolized

O=C[C@H](O)[C@@H](O)[C@H](O)[C@H](S)CO [5-Thioglucose, 5-thio-D-glucose]
injected 5-thioglucose excreted unchanged in urine [5]: 97%

O=C(CO)[C@@H](O)[C@@H](O)[C@H](O)[C@H](O)CO [mannoheptulose]
body weight [6]: slightly reduced body weight
plasma insulin levels [6]: reduced plasma insulin levels
plasma level response to dietary mannoheptulose level ([7]; 0, 1, 2 mg/kg): dose-dependent
time of return of plasma mannoheptulose to non-detectable levels ([7]; after consumption of the single daily meal): ≤ 24 h
plasma kinetics order ([7]; once daily oral, 1 or 2 mg/kg): first order kinetics
time to second peak in plasma mannoheptulose ([8]; after feeding the afternoon meal, 2 mg/kg in two equal meals): 4 h
time to peak plasma mannoheptulose level ([8]; after initial (morning) feeding, 2 mg/kg in two equal meals): 4 h
plasma kinetics order ([8]; twice daily oral, 2 mg/kg): first order kinetics
half-life ([8]; twice daily, 2 mg/kg, after the afternoon meal): 5.63 h
safety of oral dosing [9]: safely administered
remained in the body ([10]; a day after the injection): 5%
excreted unchanged [10]: 66%
metabolized [10]: 29%

Reference: patent US8563522B2, “Method of maintaining and/or attenuating a decline in quality of life” (The IAMS Company, priority 1997, dated 2013)
